Tested on: polyclonal antibodies produced to aflatoxin B1 and ochratoxin A
Settings: cited from earlier work

Compound | sensitivity
C[C@@H]1Cc2c(Cl)cc(C(=O)N[C@@H](Cc3ccccc3)C(=O)O)c(O)c2C(=O)O1 [ochratoxin A] | 5-10 ppb

Molecular target: T-2 reactive monoclonal antibody
Format: binding, murine
Settings: not given

Compound | 50% Inhibition (concentration required to inhibit binding of antibody by 50%) | Minimal Inhibition (concentration required for first significant inhibition of binding of antibody) | cross reaction with T-2 monoclonal antibody | reactivity relative to T-2 [%]
CC(=O)OC[C@]12C[C@H](OC(=O)CC(C)(C)O)C(C)=C[C@H]1O[C@@H]1[C@H](O)[C@@H](O)[C@@]2(C)[C@]12CO2 [3'OH HT-2] | 0.100 µg/mL | 0.05 µg/mL | – | –
CC(=O)OC[C@]12C[C@H](OC(=O)CC(C)(C)O)C(C)=C[C@H]1O[C@@H]1[C@H](O)[C@@H](OC(C)=O)[C@@]2(C)[C@]12CO2 [3'OH T-2] | 0.018 µg/mL | 0.005 µg/mL | – | –
CC(=O)OC[C@]12C[C@H](OC(=O)CC(C)C)C(C)=C[C@H]1O[C@@H]1[C@H](OC(C)=O)[C@@H](OC(C)=O)[C@@]2(C)[C@]12CO2 [Acetyl T-2] | 0.094 µg/mL | 0.01 µg/mL | strong cross reaction | –
CC1=C[C@H]2O[C@@H]3[C@H](O)C[C@](C)([C@@]2(CO)[C@H](O)C1=O)[C@]31CO1 [Deoxynivalanol] | > 1000. ug/ml | > 1000. ug/ml | – | –
CC(=O)OC[C@]12C[C@H](OC(=O)CC(C)C)C(C)=C[C@H]1O[C@@H]1[C@H](O)[C@@H](O)[C@@]2(C)[C@]12CO2 [HT-2] | 1.0 µg/mL | 0.5 µg/mL | relatively weak cross-reaction | 2
CC(=O)OC[C@]12C[C@H](O)C(C)=C[C@H]1O[C@@H]1[C@H](O)[C@@H](OC(C)=O)[C@@]2(C)[C@]12CO2 [Neosolaniol] | 1.6 µg/mL | 1.0 µg/mL | – | –
CC1=C[C@H]2O[C@@H]3[C@H](O)[C@@H](O)[C@](C)([C@@]2(CO)C[C@@H]1OC(=O)CC(C)C)[C@]31CO1 [T-2 triol] | 14.9 µg/mL | 5.0 µg/mL | – | –
CC(=O)OC[C@]12C[C@H](OC(=O)CC(C)C)C(C)=C[C@H]1O[C@@H]1[C@H](OC(=O)CCC(=O)O)[C@@H](OC(C)=O)[C@@]2(C)[C@]12CO2 [T-2HS, T-2-hemisuccinate] | 0.072 µg/mL | 0.01 µg/mL | – | –

— US4772551A (priority 1985, dated 1988)
